Measurements published in patent US20050096331A1, “Novel compounds and their use in medicine process for their preparation and pharmaceutical compositions containing them” (priority 2001, published 2005).
Blank lines part the entries; values can stand above or below the molecule they belong to.

Key:
Swiss albino mice = test: Plasma triglyceride and total cholesterol lowering activity in Swiss albino mice and Guinea pigs; type: in vivo, mouse; conditions: 6 days
Description: Male Swiss albino mice (SAM) and male Guinea pigs were obtained from NIN and housed in DRF animal house. All these animals were maintained under 12 hour light and dark cycle at 25±1° C. Animals were given standard laboratory chow (NIN, Hyderabad, India) and water, ad libitum. SAM of 20-25 g body weight range and Guinea pigs of 500-700 g body weight range were used (Oliver, P., Plancke, M. O., Marzin, D., Clavey, V., Sauzieres, J and Fruchart, J. C. Effects of fenofibrate, gemfibrozil and nicotinic acid on plasma lipoprotein levels in normal and hyperlipidemic mice. Atherosclerosis. 1988. 70: 107-114).
The test compounds were administered orally to Swiss albino mice at 0.3 to 30 mg/kg/day dose for 6 days. Control mice were treated with vehicle (0.25% Carboxymethylcellulose; dose 10 ml/kg). The test compounds were administered orally to Guinea pigs at […] dose for 6 days. Control animals were treated with vehicle (0.25% Carboxymethylcellulose; dose 5 ml/kg).
The blood samples were collected in fed state 1 hour after drug administration on 0 and 6 day of treatment. The blood was collected from the retro-orbital sinus through heparinised capillary in EDTA containing tubes. After centrifugation, plasma sample was separated for triglyceride and total cholesterol (Wieland, O. Methods of Enzymatic analysis. Bergermeyer, H. O., Ed., 1963. 211-214; Trinder, P. Ann. Clin. Biochem 1969, 6: 24-27). Measurement of plasma triglyceride, total cholesterol and HDL were done using commercial kits (Dr. Reddy's Diagnostic Division, Hyderabad, India).
(§1) • 1. Percent reduction in Blood sugar/triglycerides/total cholesterol were calculated according to the formula: [formula] • OC=Zero day control group value • OT=Zero day treated group value • TC=Test day control group value • TT=Test day treated group value • 2. LDL and VLDL cholesterol levels were calculated according to the formula: [formula] [formula]

C57BL/KsJ-db/db mice = test: Efficacy in genetic models: blood sugar and triglyceride lowering in db/db mice; type: in vivo, mouse
Text: Mutation in colonies of laboratory animals and different sensitivities to dietary regimens have made the development of animal models with non-insulin dependent diabetes and hyperlipidemia associated with obesity and insulin resistance possible. Genetic models such as db/db and ob/ob (Diabetes, (1982) 31(1): 1-6) mice and zucker fa/fa rats have been developed by the various laboratories for understanding the pathophysiology of disease and testing the efficacy of new antidiabetic compounds (Diabetes, (1983) 32: 830-838; Annu. Rep. Sankyo Res. Lab. (1994). 46: 1-57). The homozygous animals, C57 BL/KsJ-db/db mice developed by Jackson Laboratory, US, are obese, hyperglycemic, hyperinsulinemic and insulin resistant (J. Clin. Invest., (1990) 85: 962-967), whereas heterozygous are lean and normoglycemic. In db/db model, mouse progressively develops insulinopenia with age, a feature commonly observed in late stages of human type II diabetes when blood sugar levels are insufficiently controlled. The state of pancreas and its course vary according to the models. Since this model resembles that of type II diabetes mellitus, the compounds of the present invention were tested for blood sugar and triglycerides lowering activities.
Male C57BL/KsJ-db/db mice of 8 to 14 weeks age, having body weight range of 35 to 60 grams, bred at Dr. Reddy's Research Foundation (DRF) animal house, were used in the experiment The mice were provided with standard feed (National Institute of Nutrition (NIN), Hyderabad, India) and acidified water, ad libitum. The animals having more tan 350 mg/dl blood sugar were used for testing. The number of animals in each group was 4.
Test compounds were suspended on 0.25% carboxymethyl cellulose and administered to test group at a dose of 0.1 mg to 30 mg/kg through oral gavage daily for 6 days. The control group received vehicle (dose 10 ml/kg). On 6th day the blood samples were collected one hour after administration of test compounds/vehicle for assessing the biological activity.
The random blood sugar and triglyceride levels were measured by collecting blood (100 μl) through orbital sinus, using heparinised capillary in tubes containing EDTA which was centrifuged to obtain plasma. The plasma glucose and triglyceride levels were measured spectrometrically, by glucose oxidase and glycerol-3-PO4 oxidase/peroxidase enzyme (Dr. Reddy's Lab. Diagnostic Division Kits, Hyderabad, India) methods respectively.
The blood sugar and triglycerides lowering activities of the test compound was calculated according to the formula.
as §1

hPPARγ1 = target: T1, hPPARγ1 (Homo sapiens, UniProt P37231); test: Determination of hPPARγ activity (GAL4 luciferase reporter transactivation); type: cell-based; conditions: compound at 1 μM; luciferase activity in transfected HEK-293 cells
T1 construct: expressed in transfected cells; host or cells: HEK-293
T1 sequence (P37231 238-503 limits assumed): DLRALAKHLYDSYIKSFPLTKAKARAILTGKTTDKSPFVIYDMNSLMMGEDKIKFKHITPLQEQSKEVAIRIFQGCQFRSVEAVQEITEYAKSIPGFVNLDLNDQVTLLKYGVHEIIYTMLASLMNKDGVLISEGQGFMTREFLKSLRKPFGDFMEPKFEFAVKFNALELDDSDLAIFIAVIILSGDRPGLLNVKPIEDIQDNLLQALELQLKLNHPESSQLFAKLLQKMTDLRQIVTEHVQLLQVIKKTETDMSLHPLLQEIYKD
Description: Ligand binding domain of hPPARγ1 was fused to DNA binding domain of Yeast transcription factor GAL4 in eucaryotic expression vector. Using lipofectamine (Gibco BRL, USA) as transfecting reagent HEK-293 cells were transfected with this plasmid and a reporter plasmid harboring the luciferase gene driven by a GAL4 specific promoter. Compound was added at 1 μM concentration after 48 hrs of transfection and incubated overnight. Luciferase activity as a function of drug binding/activation capacity of PPARγ1 was measured using Packard Luclite kit (Packard, USA) in Packard Top Count (Ivan Sadowski, Brendan Bell, Peter Broag and Melvyn Hollis. Gene 1992, 118: 137-141; Guide to Eukaryotic Transfections with Cationic Lipid Reagents. Life Technologies, GIBCO BRL, USA).

hPPARα = target: T2, hPPARα (Homo sapiens, UniProt Q07869); test: Determination of hPPARα activity (GAL4 luciferase reporter transactivation); type: cell-based; conditions: compound at 50 μM; luciferase activity in transfected HEK-293 cells
T2 construct: expressed in transfected cells; host or cells: HEK-293
T2 sequence (Q07869 239-466 limits assumed): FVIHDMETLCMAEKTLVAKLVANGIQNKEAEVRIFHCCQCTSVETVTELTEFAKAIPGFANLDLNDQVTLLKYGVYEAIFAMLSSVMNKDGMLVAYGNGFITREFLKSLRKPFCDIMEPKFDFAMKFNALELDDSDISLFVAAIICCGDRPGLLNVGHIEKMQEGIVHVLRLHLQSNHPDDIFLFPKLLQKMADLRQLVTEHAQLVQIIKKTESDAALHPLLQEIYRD
Description: Ligand binding domain of hPPARα was fused to DNA binding domain of Yeast transcription factor GAL4 in eucaryotic expression vector. Using superfect (Qiagen, Germany) as transfecting reagent HEK-293 cells were transfected with this plasmid and a reporter plasmid harboring the luciferase gene driven by a GAL4 specific promoter. Compound was added at different concentrations after 42 hrs of transfection and incubated overnight. Luciferase activity as a function of compound binding/activation capacity of PPARα was measured using Packard Luclite kit (Packard, USA) in Top Count (Ivan Sadowski, Brendan Bell, Peter Broag and Melvyn Hollis. Gene 1992, 118: 137-141; Superfect Transfection Reagent Handbook. February 1997. Qiagen, Germany).

[1] = 3 mg/kg oral gavage daily for 6 days
[2] = 10 mg/kg oral gavage daily for 6 days

SMILES: CCCc1nn(C)c2c(OCCOc3ccc(C[C@H](OCC)C(=O)O)cc3)nc(C3CC3)nc12 [Example 10, (2S)-3-[4-{2-(5-Cyclopropyl-1-methyl-3-propyl-1H-pyrazolo[4,3-d]pyrimidin-7-yloxy)ethoxy}phenyl]-2-ethoxypropanoic Acid]
Triglyceride Lowering (%) (Swiss albino mice; 3 mg/kg orally): 42%

SMILES: CCCc1nn(C)c2c(OCCOc3ccc(CC(OCC)C(=O)OCC)cc3)nc(-c3ccccc3)nc12 (stereo not shown) [Example 7, Ethyl 2-ethoxy-3-[4-{2-(1-methyl-5-phenyl-3-propyl-1H-pyrazolo-[4,3-d]-pyrimidin-7-yloxy)ethoxy}phenyl]propanoate]
Triglyceride Lowering (%) (Swiss albino mice; 3 mg/kg orally): 43%

SMILES: CCCc1nn(C)c2c(OCCOc3ccc(CC(OCC)C(=O)OCC)cc3)nc(C)nc12 (stereo in doubt) [Example 5, Ethyl 2(S)-3-[4-{2-1,5-dimethyl-3-propyl-1H-pyrazolo[4,3-dipyrimidin-7-yloxy)ethoxy}phenyl]-2-ethoxypropanoate]
Reduction in Blood Glucose Level (%) (C57BL/KsJ-db/db mice; [1]): 61%
Triglyceride Lowering (%) (C57BL/KsJ-db/db mice; [1]): 51%

PPARγ (hPPARγ1): 1.4
PPARα (hPPARα): 2.7
SMILES: CCCCCCCN(C(=O)COc1nc(CC)nc2c(CCC)nn(C)c12)c1ccc(SC(CCC)C(=O)O)cc1 (stereo not shown) [Example 2, 2-[4-(5-Ethyl-1-methyl-3-propyl-1H-pyrazolo[4,3-d]pyrimidin-7-yloxymethyl-(heptyl)carboxamido)phenylsulfanyl]pentanoic Acid]

PPARγ (hPPARγ1): 6.9
PPARα (hPPARα): 5.1
SMILES: CCCc1nn(C)c2c(OCCOc3ccc(C[C@H](OCC)C(=O)O)cc3)nc(CC)nc12 [Example 4b, 2(S)-2-Ethoxy-3-[4-{2-(5-ethyl-1-methyl-3-propyl-1H-pyrazolo[4,3-d]pyrimidin-7-yloxy)ethoxy}phenyl]propanoic Acid]
Reduction in Blood Glucose Level (%) (C57BL/KsJ-db/db mice; [2]): 56%
Triglyceride Lowering (%) (C57BL/KsJ-db/db mice; [2]): 17%

SMILES: CCCc1nn(C)c2c(OCCOc3ccc(CC(OCC)C(=O)O)cc3)nc(-c3ccccc3)nc12 (stereo not shown) [Example 8, 3-[4-{2-(1-Methyl-5-phenyl-3-propyl-1H-pyrazolo-14,3-d]pyrimidin-7-yloxy)ethoxy}phenyl-2-ethoxypropanoic Acid]
Triglyceride Lowering (%) (Swiss albino mice; 10 mg/kg orally): 61%

SMILES: CCCc1nn(C)c2c(OCCOc3ccc(C[C@H](OCC)C(=O)OC)cc3)nc(CC)nc12 [Example 4a, Methyl 2(S)-2-ethoxy-3-[4-{2-(5-ethyl-1-methyl-3-propyl-1H-pyrazolo [4,3-d]-pyrimidin-7-yloxy)ethoxy}phenyl]propanoate]
Reduction in Blood Glucose Level (%) (C57BL/KsJ-db/db mice; [2]): 48%
Triglyceride Lowering (%) (C57BL/KsJ-db/db mice; [2]): 69%
